Laboratory results published in patent publication US20240043860A1, “NOVEL HYDROXYPHENYLPYRUVATE DIOXYGENASE POLYPEPTIDES AND METHODS OF USE THEREOF” (Syngenta Crop Protection AG, priority 2020, published 2024).
Values joined by “and” are separate entries in the source; they are usually repeats but may differ in a detail not shown here. Equal values may be shown once.

Key:
Experiment in all cases: spray test, herbicidal damage scoring
Type in all cases: in vivo
[1] = tested on: transgenic tobacco plants expressing mutant HPPD SEQ ID NO: 125; details: Table 4.3, 7 days after treatment, 100=complete death, 0=no damage, one value per event
Protocol: (§1) DNA sequences that encode these polypeptides (optimized for tobacco or, optionally, codon optimized according to a target crop such as soybean) were prepared synthetically. Each sequence was designed to include a 5′ fusion with TMV omega 5′ leader sequence such that they are flanked at the 5′ end with XhoI and at the 3′ end with KpnI to facilitate direct cloning into a suitable binary vector for Agrobacterium-based plant transformation.
(§2) For example, a master plate of Agrobacterium tumefaciens containing the HPPD expressing the binary vector is used to inoculate 10 ml LB (L broth) containing 100 mg/l Rifampicin plus 50 mg/l Kanamycin using a single bacterial colony. This is incubated overnight at 28° C. shaking at 200 rpm. This entire overnight culture is used to inoculate a 50 ml volume of LB containing the same antibiotics. Again this is cultured overnight at 28° C. shaking at 200 rpm. The Agrobacterium cells are pelleted by centrifuging at 3000 rpm for 15 minutes and then resuspended in MS (Murashige and Skoog) medium containing 30 g/l sucrose, pH 5.9 to an OD […]=0.6. This suspension is dispensed in 25 ml aliquots into petri dishes.
(§3) Once rooted, plantlets are transferred from agar and potted into 50% peat, 50% John Innes Soil No. 3 or, for example, MetroMix® 380 soil (Sun Gro Horticulture, Bellevue, WA) with slow-release fertilizer in 3 inch round or 4 inch square pots and left regularly watered to establish for 8-12d in the glass house. Glass house conditions are about 24-27° C. day; 18-21° C. night and approximately a 14h (or longer in UK summer) photoperiod.
(§4) About 20-30 TO events are produced for a number of HPPD variant genes.
(§5) Single copy events amongst the Ti plant lines are identified by their 3:1 segregation ratio (with respect to kanamycin and/or herbicide) and by quantitative RT-PCR. Seed from the thus selected Ti tobacco (var. Samsun) lines are sown in 3 inch diameter pots containing 50% peat and 50% John Innes Soil No. 3. […] HPPD expression levels were monitored by Western analysis.
(§6) Tables 4.1-4.9 show the herbicidal damage scoring on transgenic tobacco plants 7 days after treatment. A score of 100=complete death and 0=no damage observed.

[2] = tested on: transgenic tobacco plants expressing mutant HPPD SEQ ID NO: 124; details: Table 4.2, 7 days after treatment, 100=complete death, 0=no damage, one value per event
Protocol: as §1, §2, §3, §4, §5, §6

[3] = tested on: transgenic tobacco plants expressing mutant HPPD SEQ ID NO: 14
Protocol: as §1, with “Avena sativa HPPD or orthologues and variants thereof, for example SEQ IDs 1-63 and 122-127, were expressed in transgenic tobacco. DNA” for “DNA”
In one example, the TMV omega 5′ leader and a HPPD encoding gene of interest is excised using XhoI/KpnI and cloned into similarly digested binary vector pBIN 19 (Bevan, Nucl. Acids Res. (1984) behind a double enhanced 35S promoter ahead of a NOS 3′ transcription terminator and then transformed into E. coli DH5 alpha competent cells. DNA recovered from the E. coli is used to transform Agrobacterium tumefaciens LBA4404, and transformed bacteria are selected on media contain rifampicin and kanamycin. Tobacco tissue is subjected to Agrobacterium-mediated transformation using methods well described in the art or as described herein. For example, a master plate of Agrobacterium tumefaciens containing the HPPD expressing the binary vector is used to inoculate 10 ml LB (L broth) containing 100 mg/l Rifampicin plus 50 mg/l Kanamycin using a single bacterial colony. This is incubated overnight at 28° C. shaking at 200 rpm. This entire overnight culture is used to inoculate a 50 ml volume of LB containing the same antibiotics. Again this is cultured overnight at 28° C. shaking at 200 rpm. The Agrobacterium cells are pelleted by centrifuging at 3000 rpm for 15 minutes and then resuspended in MS (Murashige and Skoog) medium containing 30 g/l sucrose, pH 5.9 to an OD […]=0.6. This suspension is dispensed in 25 ml aliquots into petri dishes.
Once rooted, plantlets are transferred from agar and potted into 50% peat, 50% John Innes Soil No. 3 or, for example, MetroMix® 380 soil (Sun Gro Horticulture, Bellevue, WA) with slow-release fertilizer in 3 inch round or 4 inch square pots and left regularly watered to establish for 8-12d in the glass house. Glass house conditions are about 24-27° C. day; 18-21° C. night and approximately a 14h (or longer in UK summer) photoperiod. Humidity is adjusted to ˜65% and light levels used are up to 2000 umol/m^2 at bench level. Once new tissue emerged and plants reach the 2-4 leaf stage, some of the clones from each event are sprayed with an HPPD inhibitor of interest selected from the herbicides listed in reference to Example 1. […] For example Callisto® is mixed in water with 0.2-0.25% X-77 surfactant and sprayed from a boom on a suitable track sprayer moving at 2 mph in a DeVries spray chamber (Hollandale, MN) with the nozzle about 2 inches from the plant tops.
Plants are assessed for damage and scored at, for example, 7 and 14 days after treatment (DAT). About 20-30 TO events are produced for a number of HPPD variant genes.
Plants of events showing the least damage are grown to flowering, then bagged and allowed to self. […] Single copy events amongst the Ti plant lines are identified by their 3:1 segregation ratio (with respect to kanamycin and/or herbicide) and by quantitative RT-PCR. Seed from the thus selected Ti tobacco (var. Samsun) lines are sown in 3 inch diameter pots containing 50% peat and 50% John Innes Soil No. 3. After growth to the 3 leaf stage, plants are sprayed as described above in order to test for herbicide tolerance relative to like-treated non-transgenic tobacco plants, and also in comparison with like-treated Ti plants expressing the base HPPD SEQ IDs 122-125. HPPD expression levels were monitored by Western analysis. […]

COc1ccc(-n2nc(C)cc(C(=O)C3C(=O)CCCC3=O)c2=O)cc1OC [Herbicide C, dioxopyritrione]
herbicidal damage scoring, Herbicide C (200 g/ha) [1]: 60 and 80 and 75 and 85
herbicidal damage scoring, Herbicide C (200 g/ha) [2]: 60 and 65 and 50
damage ([3]; 200 g/ha, SEQ ID 14 plants compared to plants expressing SEQ IDs 122, 124 or 125): reduced damage
stunting ([3]; FIG. 4, 300 ai/ha, SEQ ID NO: 14 plants compared to plants expressing the wild-type HPPD (SEQ ID NO: 1)): significantly reduced stunting
chlorosis ([3]; FIG. 4, 300 ai/ha, some multi-copy events expressing SEQ ID NO: 14): Almost no chlorosis
chlorosis (yellowing of leaf tissue) ([3]; FIG. 5, 50 g/ha, SEQ ID NO: 14 plants compared to plants expressing SEQ ID NO: 122 or SEQ ID NO: 17): significantly reduced chlorosis
tolerance in comparison to SEQ ID NO: 122 ([3]; many lines expressing SEQ ID NO: 14, 100 g/ha (Table 3.1)): significantly improved tolerance
damage ([3]; several lines expressing SEQ ID NO: 14, 100 g/ha (Table 3.1)): less than 10%
